# Test results published in patent publication US6372493B1, “Hormone-secreting cells maintained in long-term culture” (Pacific Biomedical Research, Inc. [Cell Mart, Inc.], priority 1991, dated 2002).
# Experiments:
# [1] = tested on: Human pancreas cells at passage generation 47; test: Effect of amino acids on glucose stimulated insulin secretion (Example 20); format: cell-based; settings: 90 minutes
# Protocol: Human pancreas cells at passage generation 47, were prepared for the experiment as described in Example 17 above. The cells were incubated in 6 parts PDM plus 1 part DMSS medium at a concentration of 10^5 cells/ml, at various concentrations of glucose. Alanine (10 mM) or arginine(20 mM) were added, and the cells were incubated for 90 minutes, at which time samples were collected for assay of insulin content.
# [2] = tested on: Human pancreas cell cultures, 55 generations; test: Time course of insulin secretion in response to glucose (Example 18); format: cell-based
# Protocol: Human pancreas cell cultures from Example 16 were maintained in continuous culture through 55 generations, at which time they had been in culture for 12 months.
# Two hours prior to the experiment, the cells were centrifuged at 1070 rpm for 5 minutes and then resuspended in glucose-poor medium consisting of 1 part DMSS plus 6 parts PDM. The cells were incubated in glucose-poor medium (glucose-starved) at a concentration of about 1.5×10^6 cells/ml in 10 ml culture flasks for two hours at 37°.
# The cells were then centrifuged and resuspended in the experimental medium consisting of one part DMSS and six parts PDM. The glucose concentration in the experimental medium alone was 1.1 mM. To this medium was added glucose in the concentrations shown in Table 12 below, and the cells were incubated for various times.
# [3] = tested on: daughter-islet cells from human pancreas whole islets; test: Indirect immunofluorescence for insulin after glucose stimulation of daughter-islets (Example 22); format: cell-based; settings: 12 mM glucose 3 hours
# Protocol: The first assessment was made after three months in culture at the eighth passage generation and the second assessment was made after the sixteenth passage generation and eight months in continuous culture. On the average the daughter-islet cells were passed every 10-14 days. To test the response of the cells to glucose stimulation, the cultures were given a glucose poor basal medium. The basal medium as set forth in Formula VI below was a RPMI-1640 derivative containing 2 mM glucose. The cells remained in glucose poor medium for a period of 4 hours. The cells were first washed five times for 10 minutes each in the Formula VI medium prior to a 3 hour final incubation in the same basal medium. Subsequently the cultures were placed in the same medium, except that its total glucose concentration was 12 mM (instead of 2 mM glucose) for 3 hours and then prepared for indirect immunofluorescence to detect the presence of insulin.
# The materials and partial protocol used in this example were as follows:
# 1. Primary antibody: Guinea pig monoclonal anti-insulin (human) [Peninsula Laboratories, Inc. IFK-7303G] working dilution used was 1:200.
# 2. Secondary antibody: Rabbit anti-guinea pig IgG (whole molecule) affinity isolated—TRITC conjugate (Sigma T-7153).
# 3. Negative control: 1 ml of the primary antiserum of the Guinea pig monoclonal anti-insulin (human) was added to 50 μgm of synthetic human insulin (Peninsula Laboratories, Inc.).
# 4. Nuclear counterstain: Hoechst 33258 (Sigma Chemical Co.), 0.1% was used.
# The procedures followed for fixing the cells and the amount of primary and secondary antibodies used are given in detail in the description of procedures for Example 23. The control experiment was exposure only to the glucose poor basal medium.
# daughter-islet cells = test: Daughter islet cell insulin secretion in response to glucose, RIA (Example 25); format: cell-based, human; settings: for Secreted Insulin: 17 months of culture, one hour
# Protocol: The daughter-islets were obtained as progeny arising through cell division from islet cells in the cultured whole islets obtained as isolates from human pancreases. After 17 months of culture the daughter-islet cells were analyzed for their ability to secrete insulin in response to physiological levels of glucose. Formula VI, as described in Examples 22 and 24 with designated glucose concentrations of 2 mM (Basal level), 7.6 mM (Maintence level), 12 mM and 22 mM was used for the experiment. Care was taken to control the osmolarity of each medium to the range of 260-268 mOsm so that no strong osmotic shock was administered to the daughter-islet cells. The cells were washed 5 times, at 20 minutes each wash, with the basal level medium (2 mM glucose level) before the experiment. Each group of 5 daughter-islet was placed in 1 ml of the test medium and incubated at 37° C., with 5% CO2/5% O2/90% N2, for one hour. The medium was collected for assay and new medium containing 7.6 mM glucose was added. The one hour incubation, using the same conditions was then repeated. Those steps were repeated for the challenges with medium containing 12 mM and 22 mM glucose. Analysis of insulin secretion levels was done by RIA as described in Example 24.
smiles,measurement,setting,value
"O=C[C@H](O)[C@@H](O)[C@H](O)[C@H](O)CO [glucose, D(+)glucose]","insulin secretion, control (glucose alone)","[1]; total 1 mM glucose, 10^5 cells/ml",91
same,"insulin secretion, control (glucose alone)",[1]; total 2 mM glucose,108
same,"insulin secretion, control (glucose alone)",[1]; total 6 mM glucose,112
same,"insulin secretion, control (glucose alone)",[1]; total 11 mM glucose,116
same,"insulin secretion, control (glucose alone)",[1]; total 16 mM glucose,128
same,"insulin secretion, control (glucose alone)",[1]; total 22 mM glucose,115
same,Insulin secreted,"[2]; 1 mM glucose added, 1 hr",275 μIU Insulin secreted/1.5 milli
same,Insulin secreted,"[2]; 1 mM glucose added, 2 hr",363 μIU Insulin secreted/1.5 milli
same,Insulin secreted,"[2]; 1 mM glucose added, 3 hr",451 μIU Insulin secreted/1.5 milli
same,Insulin secreted,"[2]; 1 mM glucose added, 5 hr",564 μIU Insulin secreted/1.5 milli
same,Insulin secreted,"[2]; 1 mM glucose added, 7 hr",582 μIU Insulin secreted/1.5 milli
same,Insulin secreted,"[2]; 1 mM glucose added, 24 hr",812 μIU Insulin secreted/1.5 milli
same,Insulin secreted,"[2]; 5.6 mM glucose added, 1 hr",3413 μIU Insulin secreted/1.5 milli
same,Insulin secreted,"[2]; 5.6 mM glucose added, 2 hr",982 μIU Insulin secreted/1.5 milli
same,Insulin secreted,"[2]; 5.6 mM glucose added, 3 hr",999 μIU Insulin secreted/1.5 milli
same,Insulin secreted,"[2]; 5.6 mM glucose added, 5 hr",2383 μIU Insulin secreted/1.5 milli
same,Insulin secreted,"[2]; 5.6 mM glucose added, 7 hr",2718 μIU Insulin secreted/1.5 milli
same,Insulin secreted,"[2]; 5.6 mM glucose added, 24 hr",2760 μIU Insulin secreted/1.5 milli
same,Insulin secreted,"[2]; 11.0 mM glucose added, 1 hr",3376 μIU Insulin secreted/1.5 milli
same,Insulin secreted,"[2]; 11.0 mM glucose added, 2 hr",1768 μIU Insulin secreted/1.5 milli
same,Insulin secreted,"[2]; 11.0 mM glucose added, 3 hr",2220 μIU Insulin secreted/1.5 milli
same,Insulin secreted,"[2]; 11.0 mM glucose added, 5 hr",1184 μIU Insulin secreted/1.5 milli
same,Insulin secreted,"[2]; 11.0 mM glucose added, 7 hr",3202 μIU Insulin secreted/1.5 milli
same,Insulin secreted,"[2]; 11.0 mM glucose added, 24 hr",1276 μIU Insulin secreted/1.5 milli
same,Insulin secreted,"[2]; 16.5 mM glucose added, 1 hr",3716 μIU Insulin secreted/1.5 milli
same,Insulin secreted,"[2]; 16.5 mM glucose added, 2 hr",2415 μIU Insulin secreted/1.5 milli
same,Insulin secreted,"[2]; 16.5 mM glucose added, 3 hr",2450 μIU Insulin secreted/1.5 milli
same,Insulin secreted,"[2]; 16.5 mM glucose added, 5 hr",2589 μIU Insulin secreted/1.5 milli
same,Insulin secreted,"[2]; 16.5 mM glucose added, 7 hr",4039 μIU Insulin secreted/1.5 milli
same,Insulin secreted,"[2]; 16.5 mM glucose added, 24 hr",2099 μIU Insulin secreted/1.5 milli
same,Insulin secreted,"[2]; 22 mM glucose added, 1 hr",2538 μIU Insulin secreted/1.5 milli
same,Insulin secreted,"[2]; 22 mM glucose added, 2 hr",1845 μIU Insulin secreted/1.5 milli
same,Insulin secreted,"[2]; 22 mM glucose added, 3 hr",2066 μIU Insulin secreted/1.5 milli
same,Insulin secreted,"[2]; 22 mM glucose added, 5 hr",1722 μIU Insulin secreted/1.5 milli
same,Insulin secreted,"[2]; 22 mM glucose added, 7 hr",1320 μIU Insulin secreted/1.5 milli
same,Insulin secreted,"[2]; 22 mM glucose added, 24 hr",989 μIU Insulin secreted/1.5 milli
same,Insulin secreted,"[2]; 33 mM glucose added, 1 hr",972 μIU Insulin secreted/1.5 milli
same,Insulin secreted,"[2]; 33 mM glucose added, 2 hr",345 μIU Insulin secreted/1.5 milli
same,Insulin secreted,"[2]; 33 mM glucose added, 3 hr",446 μIU Insulin secreted/1.5 milli
same,Insulin secreted,"[2]; 33 mM glucose added, 5 hr",657 μIU Insulin secreted/1.5 milli
same,Insulin secreted,"[2]; 33 mM glucose added, 7 hr",1109 μIU Insulin secreted/1.5 milli
same,Insulin secreted,"[2]; 33 mM glucose added, 24 hr",1073 μIU Insulin secreted/1.5 milli
same,glucose concentration of maximal response,"[2]; glucose-starved cells, 1 to 24 hr",16.5 mM
same,% of insulin positive cells,[3]; 3 mo. culture (8th passage generation),88%
same,# cells positive for insulin (anti-insulin-RITC),"[3]; 3 mo. culture (8th passage generation), 388 cells screened",343
same,% of insulin positive cells,[3]; 8 mo. culture (16th passage generation),87%
same,# cells positive for insulin (anti-insulin-RITC),"[3]; 8 mo. culture (16th passage generation), 195 cells screened",170
same,Secreted Insulin,daughter-islet cells; 12 mM glucose,38.6 μIU/ml/hour/10^3 cells
same,Secreted Insulin,daughter-islet cells; 22 mM glucose,144.5 μIU/ml/hour/10^3 cells
same,maximal response relative to the basal level,daughter-islet cells; basal level 0.3 at 2 mM glucose,482 times
